What was measured:
[1] = test system: telo23 (DNA, G4) TAGGGTTAGGGTTAGGGTTAGGG; test: ITC; conditions: K+ (100 mM potassium phosphate); pH 7.4, 25 °C (298 K); 15 µM DNA; bracket = 68.3 % confidence interval
[2] = test system: F21T (DNA, G4) GGGTTAGGGTTAGGGTTAGGG; test: FRET melting; conditions: 10 mM Li cacodylate, 1 μM ligand, 200 nM DNA
[3] = test system: FMycT (F-Myc-T) (DNA, G4) TTGAGGGTGGGTAGGGTGGGTAA; test: FRET melting; conditions: 1 mM KCl, 99 mM LiCl; 10 mM Li cacodylate; 1 μM ligand, 200 nM DNA
[4] = test system: F10T (DNA, hairpin, hexaethylene glycol (HEG, (-CH2CH2O-)6) linker between nucleotides 10 and 11) TATAGCTATATATAGCTATA; test: FRET melting; conditions: 10 mM KCl, 90 mM LiCl; 10 mM Li cacodylate; 1 μM ligand, 200 nM DNA
[5] = test system: FMycT (F-Myc-T) (DNA, G4) TTGAGGGTGGGTAGGGTGGGTAA; test: FRET melting; conditions: 1 mM KCl, 99 mM LiCl, 10 mM Li cacodylate, 200 nM DNA
[6] = test system: F10T (DNA, hairpin, hexaethylene glycol (HEG) linker between nucleotides 10 and 11) TATAGCTATATATAGCTATA; test: FRET melting; conditions: 10 mM KCl, 90 mM LiCl, 10 mM Li cacodylate, 200 nM DNA
[7] = test system: telo23 (DNA, G4) TAGGGTTAGGGTTAGGGTTAGGG; test: CD titration; conditions: Na+ (100 mM sodium phosphate); pH 7.4 (main text 7.2); 4.22 µM DNA; antiparallel shifts towards hybrid
[8] = test system: F21T (DNA, G4) GGGTTAGGGTTAGGGTTAGGG; test: FRET melting; conditions: 10 mM Li cacodylate, 200 nM DNA
[9] = 10 mM KCl, 90 mM LiCl, 1 μM ligand
[10] = 100 mM NaCl, 1 μM ligand, no stabilization up to 10 μM
[11] = 1 µM ligand, no stabilization up to 10 µM
[12] = 100 mM NaCl, no stabilization up to 10 μM

K a [1]	ΔT max ([2]; 10 mM KCl, 90 mM LiCl)	ΔT max [3]	ΔT max [4]	ΔT max [2, 12]	SMILES	other results
2.16 (1.85,2.52) × 10^6 M^-1	3.7±0.3 °C	1.8±0.8 °C	0.1±0.1 °C	–	Cn1cc[n+](CCCN2C(=O)c3ccc4c5c(ccc(c35)C2=O)C(=O)N(CCC[n+]2ccn(C)c2)C4=O)c1	ΔT max ([2]; 100 mM NaCl): −0.5±0.4 °C
–	2.3±0.5 °C	–	–	–	CN(C)CCCN1C(=O)c2ccc3c4c(ccc(c24)C1=O)C(=O)N(CCCN(C)C)C3=O	ΔT max ([5]; 1 μM ligand): 3.9±0.2 °C; ΔT max ([6]; 1 μM ligand): 1.1±0.1 °C; ΔT max ([2]; 100 mM NaCl): −1.5±0.2 °C
1.30 (1.02,1.64) × 10^6 M^-1	–	–	–	–	Cn1cc[n+](C[C@H]2O[C@H](OCCN3C(=O)c4ccc5c6c(ccc(c46)C3=O)C(=O)N(CCO[C@H]3O[C@H](C[n+]4ccn(C)c4)[C@@H](O)[C@H](O)[C@@H]3O)C5=O)[C@@H](O)[C@@H](O)[C@@H]2O)c1	binding [7]: yes; ΔT max [8, 9]: 10.1±0.3 °C; ΔT max [8, 10]: −1.4±0.3 °C; ΔT max ([5]; 1 µM ligand, 10.5 °C at 10 µM): −0.3±0.7 °C; ΔT max ([6]; 1 µM ligand, 3.2 °C at 10 µM): −0.1±0.1 °C
–	–	–	–	−0.1±0.5 °C	O=C1c2ccc3c4c(ccc(c24)C(=O)N1CCO[C@@H]1O[C@H](CO)[C@@H](O)[C@H](O)[C@H]1O)C(=O)N(CCO[C@@H]1O[C@H](CO)[C@@H](O)[C@H](O)[C@H]1O)C3=O	ΔT max ([8]; 10 mM KCl, 90 mM LiCl, 1 µM ligand, no stabilization up to 10 µM): 0.4±0.1 °C; ΔT max [5, 11]: −0.3±0.4 °C; ΔT max [6, 11]: 0.5±0.2 °C
–	2.9±0.3 °C	0.9±0.7 °C	0.1±0.2 °C	−1.5±0.4 °C	Cn1cc[n+](C[C@H]2O[C@@H](OCCN3C(=O)c4ccc5c6c(ccc(c46)C3=O)C(=O)N(CCO[C@@H]3O[C@H](C[n+]4ccn(C)c4)[C@@H](O)[C@H](O)[C@H]3O)C5=O)[C@H](O)[C@@H](O)[C@@H]2O)c1	–
1.03 (0.865,1.23) × 10^6 M^-1	–	0.5±0.3 °C	0.3±0.2 °C	–	CN1CCN(CCCN2C(=O)c3ccc4c5c(ccc(c35)C2=O)C(=O)N(CCCN2CCN(C)CC2)C4=O)CC1	binding [7]: yes; ΔT max [8, 9]: 9.8±0.6 °C; ΔT max [8, 10]: −2.3±0.3 °C
–	–	–	–	–	C[n+]1ccc(-c2c3nc(c(-c4cc[n+](C)cc4)c4ccc([nH]4)c(-c4cc[n+](C)cc4)c4nc(c(-c5cc[n+](C)cc5)c5ccc2[nH]5)C=C4)C=C3)cc1	∆Tmax [8, 9]: 27.4 ± 0.4 °C
–	1.3±0.4 °C	1±0.4 °C	0.4±0.2 °C	−0.6±0.5 °C	Cn1cc[n+](CCN2C(=O)c3ccc4c5c(ccc(c35)C2=O)C(=O)N(CC[n+]2ccn(C)c2)C4=O)c1	–

— article PMC5485019 (2017)
